Source: patent publication US5631002A, “Liniment for melanin inhibitors” (Shiseido Co., Ltd., priority 1994, dated 1997)

Tested on: melanin pigment deposition in skin after sunlight exposure
Assay: Whitening effect testing (hypochromic effect on sun-exposed upper arm skin of testees)
Type: in vivo, human
Settings: applied twice daily for 4 weeks after sunlight exposure, 8 persons per group
Experimental: 40 testees were exposed to summer sunlight for 4 hours (2 hours a day for 2 days) and the skin of an inner lateral part of their upper arm was used as the subject of the test. Beginning after 5 days from the day they were exposed to the sunlight, each sample was applied to this skin once in the morning and once in the afternoon for 4 weeks. The panel was divided into 5 groups with 8 persons in each group. Testing was conducted using the following formulations.
The hypochromic effect after the application was evaluated based on the criteria below.
Samples were prepared with the blend compositions described in the aforementioned test method, and the drugs listed in Table 2 were used to compare the whitening effect.
40 testees were exposed to summer sunlight for 4 hours (2 hours a day for 2 days) and the skin of an inner lateral part of their upper arm was used as the subject of the test. Beginning after 5 days From the day they were exposed to the sunlight, each sample was applied to this skin once in the morning and once in the afternoon for 4 weeks. The panel was divided into 5 groups with 8 persons in each group. Testing was conducted using the following formulations.
Samples were prepared with the blend compositions described in the aforementioned test method, and the drugs listed in Table 4 were used to compare the whitening effect.
Samples were prepared with the blend compositions described in the aforementioned test method, and the drugs listed in Table 6 were used to compare the whitening effect.
40 testees were exposed to summer sunlight for 4 hours (2 hours a day for 2 days) and the skin of an inner lateral part of their upper arm was used as the subject of the test. Beginning after 5 days from the day they were exposed to the sunlight, each sample was applied to this skin once in the morning and once in the afternoon for 4 weeks. The panel was divided into 5 groups 5 with 8 persons in each group. Testing was conducted using the following formulations.
Samples were prepared with the blend compositions described in the aforementioned test Method, and the drugs listed in Table 8 were used to compare the whitening effect.

## Oc1ccc(O)cc1 [Hydroquinone]
Table 2, Blend Ratio 1.0 wt % in lotion
  Effect (hypochromic effect): Δ (Δ: Very effective or effective on 30% to less than 50% testees)
Table 4, Blend Ratio 1.0 wt % in lotion
  Effect (hypochromic effect): Δ (Δ: Very effective or effective on 30% to less than 50% testees)
Table 6, Blend Ratio 1.0 % in lotion
  Effect (hypochromic effect): Δ (Δ: Very effective or effective on 30% to less than 50% testees)
Table 8, Blend Ratio (5) 1.0 in lotion
  Effect (hypochromic effect): Δ (Δ: Very effective or effective on 30% to less than 50% testees)
